Measurements: ChEMBL document CHEMBL1125599, “Cholinergic activity of acetylenic imidazoles and related compounds” (J Med Chem, 1991)

How the values were obtained:
[1] = target: Muscarinic acetylcholine receptor (Rattus norvegicus) (UniProt P08482+P08483+P08485+P08911+P10980); assay: Ratio of Ki value for QNB to that of Ki value for Oxo-M.; format: protein assay
Mus musculus [2] = assay: ED50 value as cholinergic agonist by measuring salivation in mice (in vivo); format: functional
Mus musculus [3] = assay: ED50 value determined as oxotremorine antagonism by measuring salivation in mice (in vivo); format: functional
Mus musculus [4] = assay: ED50 value as cholinergic agonism by measuring lacrimation in mice (in vivo); format: functional
[5] = target: Muscarinic acetylcholine receptor; assay: Binding affinity to muscarinic acetylcholine receptor was determined in presence of [3H]QNB radioligand (in vitro); format: protein assay
Mus musculus [6] = assay: ED50 value determined as oxotremorine antagonism by measuring lacrimation in mice (in vivo); format: functional
[7] = target: Muscarinic acetylcholine receptor; assay: Binding affinity to muscarinic acetylcholine receptor was determined in presence of [3H]OXO-M radioligand (in vitro); format: protein assay
Mus musculus [8] = assay: ED50 value as cholinergic agonist by measuring tremors in mice (in vivo); format: functional
Mus musculus [9] = assay: ED50 value determined as oxotremorine antagonism by measuring tremors in mice (in vivo); format: functional

Compound	Ki ratio [1]	ED50 (Mus musculus [2]) [mg/kg]	ED50 (Mus musculus [3]) [mg/kg]	ED50 (Mus musculus [4]) [mg/kg]	Ki [5] [nM]	ED50 (Mus musculus [6]) [mg/kg]	Ki [7] [nM]	ED50 (Mus musculus [8]) [mg/kg]	ED50 (Mus musculus [9]) [mg/kg]
CC(=O)N(C)C(C)C#CCn1cncc1C (configuration not stated)	18	> 100	3.7	> 100	184	1.1	10	> 100	
CN(C)CC#CCN1CCCC1=O	2360				2600		1.1		
CC(=O)N(C)C(C)C#CCn1ccnc1 (configuration not stated)	125	3	> 100	3	1500	> 100	12	2	
CC(=O)NCC#CCn1ccnc1		> 100	> 100	> 100	> 10000	> 100	187		> 100
CN(C)CC#CCn1ccn(C)c1=O		8	> 100	8	> 10000	> 100	37	5.4	
O=C1CCCN1CC#CCN1CCCC1 [OXOTREMORINE]	386	0.221		0.28	193				
Cc1cncn1CC#CCN(C)C(=O)N(C)C			11.8	> 100	> 10000	9.7	82	45.2	> 100
CN(C)C(=O)N(C)CC#CCn1ccnc1		25.4	> 100		> 10000	11.8	14.6	11.8	> 100
CC(=O)N(C)CC#CCN(C)C		1.73	> 10	1.73	> 10000	> 10	4.2	0.97	> 10
CC(C#CCn1ccnc1)N1CCCC1=O (configuration not stated)	17	> 100	3.7	> 100	556	2	33.5	> 100	
CC(C#CCN1CCCC1)N1CCN(C)C1=O (configuration not stated)	10	> 30	25	> 30	130	4.5	13	> 30	
Cc1cncn1CC#CCN1CCNC1=O		> 100	66	> 100	> 10000	21	138		> 100
CN(C)CC#CCN1CCNC1=O		9.7	> 100	9.7	> 10000	> 100	43	9.7	
Cn1ccn(CC#CCn2ccnc2)c1=O		3.7	> 100	4.4	> 10000	> 100	35	4.5	
O=C1NCCN1CC#CCn1ccnc1		17.3	> 100	30	> 10000	> 100	62		> 100
CC(=O)NCC#CCn1cncc1C		> 100	66	66	> 10000	66	213		> 100
CN1CCN(CC#CCN2CCCC2)C1=O	67	0.21	> 3	0.3	180	> 3	2.7	0.14	
COC(=O)N(C)C(C)C#CCN(C)C (configuration not stated)		17.3	> 100	17.3	> 10000	> 100	16	11.8	> 100
O=C1CCCN1CC#CCn1cccn1		> 100	> 100	> 100	> 10000	> 100	> 10000	> 100	> 100
CC(=O)N(C)C(C)C#CCn1ccnc1C (configuration not stated)	12	> 100	0.2	> 100	19	0.05	1.6	> 100	
CN1CCN(CC#CCn2ccnc2)C1=O	890	1.4	> 100	1.4	1868	> 100	2.1	0.97	
CC(=O)N(C)CC#CCn1ccnc1		1.4	> 100	1.4	> 10000	> 100	1.92	0.97	
CCc1nccn1CC#CCN1CCCC1=O	2	> 100	2.5	> 100	56.9	0.54	29.1	> 100	
CN(C)CC#CCN1CCN(C)C1=O	40	0.54	> 10	0.54	180	> 10	4.5	0.37	
Cn1ccn(CC#CCN2CCCC2)c1=O	72	6.6	> 10	6.6	510	> 10	7.1	3.7	
Cc1cn(CC#CCN2CCCC2=O)c(C)n1	2.4	> 100	14.2	> 100	160	8	68	> 100	
O=C1CCCN1CC#CCn1ccnc1	460	0.45	> 100	0.45	600	> 100	1.3	0.45	
CC(=O)N(C)C(C)C#CCN1CCCC1 (configuration not stated)		0.55	> 10	0.66		> 10		> 10	
COC(=O)N(C)CC#CCn1ccnc1		4.5	> 100	4.5	> 10000	> 100	10.2	2	
CC1CCC(=O)N1CC#CCn1ccnc1 (configuration not stated)	7.4	> 100	1.1	> 100	171	0.54	23	> 100	
